Test results from patent US11278024B2 (priority 2017, dated 2022).
Marks after values point to notes of the source that are not given here.

Tests used:
Type in all cases: in vivo
[1] = system: spiral nematodes; assay: Petri dish nematocidal activity on spiral nematodes; conditions: geraniol 2,000 ppm; for Number of killed nematodes: 15 spiral nematodes
Excerpt: (§1) Petri dishes, followed by measurement of nematocidal activity.

[2] = system: root-lesion nematodes; assay: Petri dish nematocidal activity on root-lesion nematodes; conditions: geraniol 2,000 ppm; for Number of killed nematodes: 15 root-lesion nematodes
Excerpt: as §1

[3] = system: cyst nematodes; assay: Petri dish nematocidal activity on cyst nematodes; conditions: geraniol 2,000 ppm; for Number of killed nematodes: 15 cyst nematodes
Excerpt: as §1

[4] = system: root-knot nematodes (Meloidogyne spp.); assay: Petri dish nematocidal activity on hatched root-knot nematodes; conditions: for Number of killed root-knot nematodes: 15 nematodes; for Nematocidal efficiency (%): within 3 days; for Nematocidal efficiency on root-knot nematodes (%): geraniol concentration 685 ppm
Procedure: The nematodes used in the experiments were Meloidogyne spp. (hatched from eggs from infected roots of melons from farms in Seongju-gun, Gyeongsangbuk-do, Korea), and were propagated using tomato plants from Ecowin Co. Ltd. and used for experiments.
The tomato roots infected with root-knot nematodes were washed with running water and were then cut to a size of about 1 cm, after which 50 g of the cut roots was placed in a 500 ml round-bottom flask containing 200 ml of 0.5% sodium hypochloride (NaOCl), stopped with a rubber stopper, and shaken vigorously for 3 min to sterilize the roots and at the same time burst the egg bag. Thereafter, the solution was passed through a sieve in which 200 mesh was superimposed on 500 mesh, and washed with distilled water, so the eggs of the root-knot nematodes from which the NaOCl solution was removed were recovered.
Next, the eggs of the root-knot nematodes thus recovered were surface-sterilized with 0.5% NaOCl for 10 min, washed thoroughly with sterile distilled water, placed in a phosphate buffer (1%) containing sterilized normal saline, and hatched in an incubator at 25° C.
Thereafter, […], 2 to 3 ml thereof was poured into a Petri dish, after which 15 hatched root-knot nematodes were placed in the Petri dish, and nematocidal activity was measured and the results thereof are shown in Table 1 below.
Nematocidal activity on root-knot nematodes (treatment concentration: […]) was evaluated in the same manner as in Example 1, with the exception that Ostericum koreanum, clove, Myristica fragrans, Acorus gramineus, Kaempferia galanga and Amomum cardamomum L. extracts were used, in lieu of the naturally derived materials. Here, Ostericum koreanum, clove, Myristica fragrans, Acorus gramineus, Kaempferia galanga and Amomum cardamomum L. were purchased from a medicinal plant retailer located in the Daegu area and then extracted using ethanol according to a typical method. Specifically, each medicine was finely crushed, mixed with ethanol at a ratio of 1:5, and extracted at 180 rpm at room temperature for 48 hr, after which as much ethanol as possible was concentrated using a concentrator.
Nematocidal activity on root-knot nematodes was evaluated in the same manner as in Example 1, with the exception that a neem extract was used in lieu of the naturally derived materials.

[5] = system: tomato seedlings; assay: Phytotoxicity on tomato seedlings in pots, drenching treatment, observed with the naked eye; conditions: 50 ml drench, 1 week after treatment
Procedure: Sterilized soil was uniformly mixed, 300 g thereof was then placed in each pot, and tomato seedlings not infected with root-knot nematodes were transplanted thereto.
Sterilized soil was uniformly mixed, 300 g thereof was then placed in each pot, and tomato seedlings not infected with root-knot nematodes were transplanted thereto. The sample prepared in Example 4 was diluted to a standard amount or a multiple thereof for each treatment group, and then 50 ml thereof was used for drenching treatment.

Question: With `CC(C)=CCC/C(C)=C/CO` [Geraniol, geraniol] as the molecule, how does the “Number of killed nematodes” value ([1]; 1 day) read?
Answer: Its value is 7.

Question: What about the “Number of killed nematodes” value ([1]; 2 days) of the same molecule?
Answer: Its value is 9.

Question: What about the “Number of killed nematodes” value ([1]; 3 days) of the same molecule?
Answer: Its value is 13.

Question: And the Nematocidal efficiency ([1]; within 3 days)?
Answer: The Nematocidal efficiency was 86.7%.

Question: And the “Number of killed nematodes” value ([2]; 1 day)?
Answer: Its value is 14^a.

Question: What about the “Number of killed nematodes” value ([2]; 2 days) of the same molecule?
Answer: The value was 15.

Question: And the Nematocidal efficiency ([2]; within 3 days)?
Answer: Its Nematocidal efficiency is 100%.

Question: What about the “Number of killed nematodes” value ([3]; 1 day) of the same molecule?
Answer: Its value is 8.

Question: What about the “Number of killed nematodes” value ([3]; 2 days) of the same molecule?
Answer: The value was 11.

Question: What about the “Number of killed nematodes” value ([3]; 3 days) of the same molecule?
Answer: Its value is 12.

Question: And the Nematocidal efficiency ([3]; within 3 days)?
Answer: The Nematocidal efficiency was 80%.

Question: And the “Number of killed root-knot nematodes” value ([4]; 100 ppm, 1 day)?
Answer: The value was 5.

Question: And the “Number of killed root-knot nematodes” value ([4]; 100 ppm, 2 days)?
Answer: Its value is 7.

Question: What about the “Number of killed root-knot nematodes” value ([4]; 100 ppm, 3 days) of the same molecule?
Answer: Its value is 7.

Question: And the “Nematocidal efficiency (%)” value ([4]; 100 ppm)?
Answer: Its value is 46.7%.

Question: And the “Number of killed root-knot nematodes” value ([4]; 200 ppm, 1 day)?
Answer: Its value is 5.

Question: And the “Number of killed root-knot nematodes” value ([4]; 200 ppm, 2 days)?
Answer: The value was 7.

Question: And the “Number of killed root-knot nematodes” value ([4]; 200 ppm, 3 days)?
Answer: The value was 13.

Question: What about the “Nematocidal efficiency (%)” value ([4]; 200 ppm) of the same molecule?
Answer: The value was 86.7%.

Question: And the “Number of killed root-knot nematodes” value ([4]; 333 ppm, 1 day)?
Answer: The value was 5.

Question: What about the “Number of killed root-knot nematodes” value ([4]; 333 ppm, 2 days) of the same molecule?
Answer: Its value is 6.

Question: What about the “Number of killed root-knot nematodes” value ([4]; 333 ppm, 3 days) of the same molecule?
Answer: Its value is 15.

Question: And the “Nematocidal efficiency (%)” value ([4]; 333 ppm)?
Answer: Its value is 100%.

Question: And the “Number of killed root-knot nematodes” value ([4]; 500 ppm, 1 day)?
Answer: Its value is 5.

Question: And the “Number of killed root-knot nematodes” value ([4]; 500 ppm, 2 days)?
Answer: The value was 10.

Question: And the “Number of killed root-knot nematodes” value ([4]; 500 ppm, 3 days)?
Answer: Its value is 15.

Question: What about the “Nematocidal efficiency (%)” value ([4]; 500 ppm) of the same molecule?
Answer: Its value is 100%.

Question: What about the “Number of killed root-knot nematodes” value ([4]; 1,000 ppm, 1 day) of the same molecule?
Answer: The value was 10.

Question: And the “Number of killed root-knot nematodes” value ([4]; 1,000 ppm, 2 days)?
Answer: The value was 15.

Question: And the “Nematocidal efficiency (%)” value ([4]; 1,000 ppm)?
Answer: Its value is 100%.

Question: What about the “Nematocidal efficiency (%)” value ([4]; 2,000 ppm) of the same molecule?
Answer: Its value is 100%.

Question: And the “Number of killed root-knot nematodes” value ([4]; 3,000 ppm, 1 day)?
Answer: The value was 15.

Question: What about the “Nematocidal efficiency (%)” value ([4]; 3,000 ppm) of the same molecule?
Answer: Its value is 100%.

Question: And the “Number of killed root-knot nematodes” value ([4]; 10,000 ppm, 1 day)?
Answer: The value was 15^a.

Question: What about the “Nematocidal efficiency (%)” value ([4]; 10,000 ppm) of the same molecule?
Answer: Its value is 100%.

Question: And the “Nematocidal efficiency on root-knot nematodes (%)” value ([4]; 1 day)?
Answer: Its value is 72.5%.

Question: What about the “Nematocidal efficiency on root-knot nematodes (%)” value ([4]; 2 days) of the same molecule?
Answer: The value was 93.6%.

Question: What about the “Nematocidal efficiency on root-knot nematodes (%)” value ([4]; 3 days) of the same molecule?
Answer: Its value is 100.0%.

Question: What about the “Nematocidal effect of geraniol alone relative to palmarosa oil containing the same amount of geraniol” value ([4]; same geraniol content (685 ppm)) of the same molecule?
Answer: Its value is “about 4.2 times”.

Question: And the “Extent of phytotoxicity (0-5)” value ([5]; 100 ppm)?
Answer: The value was 0.

Question: And the Phytotoxicity symptom ([5]; 100 ppm)?
Answer: Its Phytotoxicity symptom is “No”.

Question: What about the “Extent of phytotoxicity (0-5)” value ([5]; 200 ppm) of the same molecule?
Answer: Its value is 0.

Question: And the Phytotoxicity symptom ([5]; 200 ppm)?
Answer: The Phytotoxicity symptom was “No”.

Question: What about the “Extent of phytotoxicity (0-5)” value ([5]; 330 ppm) of the same molecule?
Answer: The value was 0.

Question: What about the Phytotoxicity symptom ([5]; 330 ppm) of the same molecule?
Answer: Its Phytotoxicity symptom is “No”.

Question: What about the “Extent of phytotoxicity (0-5)” value ([5]; 500 ppm) of the same molecule?
Answer: Its value is 0.

Question: What about the Phytotoxicity symptom ([5]; 500 ppm) of the same molecule?
Answer: Its Phytotoxicity symptom is “No”.

Question: And the “Extent of phytotoxicity (0-5)” value ([5]; 1,000 ppm)?
Answer: Its value is 0.

Question: What about the Phytotoxicity symptom ([5]; 1,000 ppm) of the same molecule?
Answer: Its Phytotoxicity symptom is “No”.

Question: What about the “Extent of phytotoxicity (0-5)” value ([5]; 2,000 ppm) of the same molecule?
Answer: Its value is 0.

Question: And the Phytotoxicity symptom ([5]; 2,000 ppm)?
Answer: The Phytotoxicity symptom was “No”.

Question: And the “Extent of phytotoxicity (0-5)” value ([5]; 3,000 ppm)?
Answer: The value was 0.

Question: What about the Phytotoxicity symptom ([5]; 3,000 ppm) of the same molecule?
Answer: Its Phytotoxicity symptom is “No”.

Question: And the “Extent of phytotoxicity (0-5)” value ([5]; 4,000 ppm)?
Answer: The value was 5.

Question: And the Phytotoxicity symptom ([5]; 4,000 ppm)?
Answer: Its Phytotoxicity symptom is “Withered”.

Question: What about the “Extent of phytotoxicity (0-5)” value ([5]; 5,000 ppm) of the same molecule?
Answer: The value was 5.

Question: And the Phytotoxicity symptom ([5]; 5,000 ppm)?
Answer: The Phytotoxicity symptom was “Withered”.

Question: What about the “Extent of phytotoxicity (0-5)” value ([5]; 10,000 ppm) of the same molecule?
Answer: The value was 5.

Question: And the Phytotoxicity symptom ([5]; 10,000 ppm)?
Answer: The Phytotoxicity symptom was “Withered”.

Question: And the “Extent of phytotoxicity (0-5)” value ([5]; 20,000 ppm)?
Answer: Its value is 5.

Question: What about the Phytotoxicity symptom ([5]; 20,000 ppm) of the same molecule?
Answer: Its Phytotoxicity symptom is “Withered”.

Question: Which “Number of killed root-knot nematodes” value ([4]; 2,000 ppm, 1 day) does the source give for `C/C=C(\C)C(=O)O[C@H]1C[C@@H](OC(C)=O)[C@@]2(C(=O)OC)CO[C@H]3[C@@H](O)[C@@](C)([C@]45O[C@@]4(C)[C@H]4C[C@@H]5O[C@@H]5OC=C[C@@]54O)[C@H]4[C@]1(CO[C@]4(O)C(=O)OC)[C@@H]32` [Azadirachtin, azadirachtin, reference compound] here?
Answer: The value was 7.

Question: And the “Number of killed root-knot nematodes” value ([4]; 2,000 ppm, 2 days)?
Answer: Its value is 8.

Question: What about the “Number of killed root-knot nematodes” value ([4]; 2,000 ppm, 3 days) of the same molecule?
Answer: The value was 10.

Question: What about the “Nematocidal efficiency (%)” value ([4]; 2,000 ppm) of the same molecule?
Answer: Its value is 66.7%.

Question: Which “Number of killed root-knot nematodes” value ([4]; 2,000 ppm, 1 day) does the source give for pyrethrin [reference compound] here?
Answer: Its value is 5.

Question: And the “Number of killed root-knot nematodes” value ([4]; 2,000 ppm, 2 days)?
Answer: Its value is 6.

Question: What about the “Number of killed root-knot nematodes” value ([4]; 2,000 ppm, 3 days) of the same molecule?
Answer: Its value is 11.

Question: And the “Nematocidal efficiency (%)” value ([4]; 2,000 ppm)?
Answer: The value was 73.3%.

Question: For `O=C1CCC[C@@H]2[C@H]3CCC[N+]4([O-])CCC[C@@H](CN12)[C@@H]34` (stereo partly shown) [Oxymatrine, oxymatrine, reference compound], which “Number of killed root-knot nematodes” value ([4]; 2,000 ppm, 1 day) is on record?
Answer: Its value is 7.

Question: And the “Number of killed root-knot nematodes” value ([4]; 2,000 ppm, 2 days)?
Answer: Its value is 9.

Question: And the “Number of killed root-knot nematodes” value ([4]; 2,000 ppm, 3 days)?
Answer: Its value is 10.

Question: What about the “Nematocidal efficiency (%)” value ([4]; 2,000 ppm) of the same molecule?
Answer: The value was 66.7%.
